Values of other authors as cited in paper PMC7511286 (European Journal of Drug Metabolism and Pharmacokinetics, 2020).

Legend:
CYP2C8 = conditions: human liver microsomes, recombinant enzymes; ref data on file; cited from earlier work
[1] = hepatocytes across different species; ref data on file; cited from earlier work
[2] = system: human mitochondrial enzyme dihydroorotate dehydrogenase (DHODH); conditions: cited from earlier work
[3] = free acid, multiple-dose phase 1 study; cited from earlier work
CYP2C9 = conditions: human liver microsomes, recombinant enzymes; ref data on file; cited from earlier work
stimulated immune cells = conditions: cited from earlier work

For COc1cccc(-c2ccc(NC(=O)C3=C(C(=O)O)CCC3)c(F)c2)c1 [vidofludimus], which “contribution of CYP isoform to metabolism” value (CYP2C8) is on record?
Its value is “predominant hepatic CYP isoform”.

What about the “number of metabolites identified” value [1] of the same compound?
The value was “eight”.

What about the “inhibition of DHODH” value [2] of the same compound?
Its value is “potent and selective inhibitor”.

What about the “daily dose at which cases of hematuria occurred” value [3] of the same compound?
The value was 70 mg.

And the “contribution of CYP isoform to metabolism” value (CYP2C9)?
The value was “smaller contributions”.

What about the “inhibition of IL-17 and IFN-γ release” value (stimulated immune cells) of the same compound?
Its value is “very potent inhibitor”.
